The test system of assay [1] is E. coli strains with elevated MICs to Polymyxin B. Nature of the assay: MIC against strains with elevated MICs to Polymyxin B. Type of assay: cell-based, Escherichia coli. The settings on record: Table 6D; for MIC E. coli 058: strain 058, elevated MIC to Polymyxin B. The protocol:
(§1) The inoculum was prepared by making a direct suspension of isolated colonies (selected from an 18-24 hour Mueller-Hinton agar plate) adjusted to the 0.5 McFarland standard. […] The assays were performed in duplicate. […] In cases where the duplicate values varied by less than 2-fold, the lower of the two values is reported. If a variation of greater than 2-fold was observed, the assay was considered non-valid. Several of the compounds were subjected to multiple tests, and where this is the case, the MIC reflects the modal value obtained.
(§2) The Further Synthesis Examples were tested against a range of Gram negative bacteria, and tested for HK-2 cell toxicity. All the worked examples, including the Synthesis and Further Synthesis Examples, were also tested against a range of Gram negative bacteria that are resistant to Polymyxin B (i.e. those strains where Polymyxin B has an elevated MIC value).

In assay [2] the test system is A. baumanii strains with elevated MICs to Polymyxin B. Nature of the assay: MIC against strains with elevated MICs to Polymyxin B. Type of assay: cell-based, Acinetobacter baumannii. Particulars: Table 6D. The protocol: as §1, §2
For assay [3], the system named is K. pneumoniae strains with elevated MICs to Polymyxin B. Described as above. Type of assay: cell-based, Klebsiella pneumoniae. Particulars: Table 6D. The procedure:
as §1, §2

Assay [4] concerns P. aeruginosa strains with elevated MICs to Polymyxin B. Nature of the assay: MIC against strains with elevated MICs to Polymyxin B. The settings on record: strain 065, elevated MIC to Polymyxin B; Table 6D. Type of assay: cell-based, Pseudomonas aeruginosa. The protocol:
as §1, §2

[5] abbreviates: absence of a second agent, Table 6B.

Where two headings read alike, the source gives them in different places.

For the substance “1-(2- trifluoromethylben- zyl)piperazine- 2-carbonyl polymyxin E nonapeptide [Example D72]”, the “MIC E. coli 059” value in assay [1] (strain 059, elevated MIC to Polymyxin B) came to 16 micrograms/mL. In addition, in assay [1] (strain 060, elevated MIC to Polymyxin B), the “MIC E. coli 060” value came to 8 micrograms/mL. The “MIC E. coli 061” value in assay [1] (strain 061, elevated MIC to Polymyxin B) came out at 16 micrograms/mL. Also, in the assay on E. coli (sole activity, Table 6C), the “MIC, E. coli ATCC 25922” value came out at 0.25 micrograms/mL and the “MIC, E. coli NCTC 13441” value came out at 0.25 micrograms/mL. Further, the “MIC A. baumannii 053” value in assay [2] (strain 053, elevated MIC to Polymyxin B) is reported as over 128 micrograms/mL. Further, the “MIC A. baumannii 056” value in assay [2] (strain 056, elevated MIC to Polymyxin B) came to 128 micrograms/mL. Also, in assay [2] (strain 068, elevated MIC to Polymyxin B), the “MIC A. baumannii 068” value is given as 64 micrograms/mL. For the same substance, in assay [2] (strain 070, elevated MIC to Polymyxin B), the “MIC A. baumannii 070” value stood at 128 micrograms/mL. Also, in assay [3] (strain 062, elevated MIC to Polymyxin B), the “MIC K. pneumoniae 062” value is given as 64 micrograms/mL. Besides, in assay [3] (strain 063, elevated MIC to Polymyxin B), the “MIC K. pneumoniae 063” value came to 32 micrograms/mL. For the same substance, in assay [3] (strain 655, elevated MIC to Polymyxin B), the “MIC K. pneumoniae 655” value is 64 micrograms/mL. In addition, in the assay on A. baumannii (sole activity, Table 6C), the “MIC, A. baumannii ATCC BAA-747” value is on record as 0.125 micrograms/mL. For the same substance, in the assay with K. pneumoniae (sole activity, Table 6C), the “MIC, K. pneumoniae ATCC 4352” value amounted to 0.125 micrograms/mL and the “MIC, K. pneumoniae ATCC BAA-2146” value is listed as 0.25 micrograms/mL. In the assay on P. aeruginosa (sole activity, Table 6C), the “MIC, P. aeruginosa ATCC 27853” value was 0.5 micrograms/mL and the “MIC, P. aeruginosa CCUG 59347” value came to 1 micrograms/mL.
Regarding “(S)-4-amino-2- (((S)-6- methyloctanoyl)ox- y)butanoyl polymyxin B nonapeptide [Example D93]”, the “MIC E. coli 058” value in assay [1] came to 8 micrograms/mL. Besides, in the assay on E. coli (sole activity, Table 6C), the “MIC, E. coli ATCC 25922” value is given as 0.25 micrograms/mL. In the assay with A. baumannii (sole activity, Table 6C), the “MIC, A. baumannii ATCC BAA-747” value stood at 0.25 micrograms/mL and the “MIC, A. baumannii NCTC 13424” value stood at 0.5 micrograms/mL. Further, the “MIC, K. pneumoniae ATCC 4352” value with K. pneumoniae (sole activity, Table 6C) worked out at 0.25 micrograms/mL. Also, in the assay on P. aeruginosa (sole activity, Table 6C), the “MIC, P. aeruginosa ATCC 27853” value was found to be 0.25 micrograms/mL and the “MIC, P. aeruginosa CCUG 59347” value came out at 1 micrograms/mL. In assay [4], the “MIC P. aeruginosa 065” value came out at 2 micrograms/mL.
Regarding “(cis-5- cyclohexylpiperidine)- 3-carbonyl L-Thr-L- Dap-polymyxin B heptapeptide [Example D43]”, in the assay with E. coli (setting [5]), the “MIC, E. coli ATCC 25922” value was 2 micrograms/mL and the “MIC, E. coli NCTC 13441” value stood at 4 micrograms/mL. For the same substance, in the assay with A. baumannii (setting [5]), the “MIC, A. baumannii ATCC BAA-747” value was 4 micrograms/mL and the “MIC, A. baumannii NCTC 13424” value is 4 micrograms/mL. Also, in the assay on K. pneumoniae (setting [5]), the “MIC, K. pneumoniae ATCC 4352” value turned out to be 2 micrograms/mL and the “MIC, K. pneumoniae ATCC BAA-2146” value is 4 micrograms/mL. Also, in the assay on P. aeruginosa (setting [5]), the “MIC, P. aeruginosa ATCC 27853” value is given as 1 micrograms/mL and the “MIC, P. aeruginosa CCUG 59347” value worked out at 2 micrograms/mL.
Consider “(cis-5-(2-methylpropyl) piperidine)-3-carbonyl polymyxin B nonapeptide [Example D47]”, for which, in the assay with E. coli (setting [5]), the “MIC, E. coli ATCC 25922” value is given as 4 micrograms/mL and the “MIC, E. coli NCTC 13441” value is 8 micrograms/mL. In addition, in the assay on A. baumannii (setting [5]), the “MIC, A. baumannii ATCC BAA-747” value is recorded as over 8 micrograms/mL and the “MIC, A. baumannii NCTC 13424” value is listed as over 8 micrograms/mL. Besides, in the assay with K. pneumoniae (setting [5]), the “MIC, K. pneumoniae ATCC 4352” value is reported as 4 micrograms/mL and the “MIC, K. pneumoniae ATCC BAA-2146” value turned out to be 8 micrograms/mL. Besides, in the assay with P. aeruginosa (setting [5]), the “MIC, P. aeruginosa ATCC 27853” value stood at 2 micrograms/mL and the “MIC, P. aeruginosa CCUG 59347” value is given as over 8 micrograms/mL.
Consider “(cis-5-(2-methylpropyl) piperidine)-3-carbonyl polymyxin B nonapeptide [Example D48]”, for which, in the assay with E. coli (setting [5]), the “MIC, E. coli ATCC 25922” value is listed as 0.125 micrograms/mL and the “MIC, E. coli NCTC 13441” value is on record as 0.125 micrograms/mL. Moreover, in the assay on A. baumannii (setting [5]), the “MIC, A. baumannii ATCC BAA-747” value was 0.5 micrograms/mL and the “MIC, A. baumannii NCTC 13424” value is 0.5 micrograms/mL. Further, in the assay on K. pneumoniae (setting [5]), the “MIC, K. pneumoniae ATCC 4352” value is on record as 0.125 micrograms/mL and the “MIC, K. pneumoniae ATCC BAA-2146” value was 0.25 micrograms/mL. In the assay on P. aeruginosa (setting [5]), the “MIC, P. aeruginosa ATCC 27853” value came out at 0.25 micrograms/mL and the “MIC, P. aeruginosa CCUG 59347” value is reported as 1 micrograms/mL.
Turning to “(cis-6-octylpiperidine)- 3-carbonyl polymyxin B nonapeptide [Example D16]”, in the assay with E. coli (setting [5]), the “MIC, E. coli ATCC 25922” value is given as over 8 micrograms/mL and the “MIC, E. coli NCTC 13441” value is over 8 micrograms/mL. Besides, in the assay with A. baumannii (setting [5]), the “MIC, A. baumannii ATCC BAA-747” value is over 8 micrograms/mL and the “MIC, A. baumannii NCTC 13424” value is on record as over 8 micrograms/mL. Besides, in the assay with K. pneumoniae (setting [5]), the “MIC, K. pneumoniae ATCC 4352” value is listed as over 8 micrograms/mL and the “MIC, K. pneumoniae ATCC BAA-2146” value is listed as over 8 micrograms/mL. In the assay with P. aeruginosa (setting [5]), the “MIC, P. aeruginosa ATCC 27853” value was 8 micrograms/mL and the “MIC, P. aeruginosa CCUG 59347” value was 1 micrograms/mL.
As for “(cis-6-octylpiperidine)- 3-carbonyl polymyxin B nonapeptide [Example D17]”, in the assay on E. coli (setting [5]), the “MIC, E. coli ATCC 25922” value is 2 micrograms/mL and the “MIC, E. coli NCTC 13441” value came out at 2 micrograms/mL. Moreover, in the assay with A. baumannii (setting [5]), the “MIC, A. baumannii ATCC BAA-747” value is recorded as 2 micrograms/mL and the “MIC, A. baumannii NCTC 13424” value is listed as 4 micrograms/mL. Moreover, in the assay with K. pneumoniae (setting [5]), the “MIC, K. pneumoniae ATCC 4352” value is reported as 2 micrograms/mL and the “MIC, K. pneumoniae ATCC BAA-2146” value was found to be 2 micrograms/mL. Moreover, in the assay on P. aeruginosa (setting [5]), the “MIC, P. aeruginosa ATCC 27853” value is 0.5 micrograms/mL and the “MIC, P. aeruginosa CCUG 59347” value stood at 0.5 micrograms/mL.
On to “(trans-5-(2- methylpropyl) piperidine)-3-carbonyl polymyxin B nonapeptide [Example D49]”, for which, in the assay on E. coli (setting [5]), the “MIC, E. coli ATCC 25922” value is 8 micrograms/mL and the “MIC, E. coli NCTC 13441” value is 8 micrograms/mL. Moreover, in the assay with A. baumannii (setting [5]), the “MIC, A. baumannii ATCC BAA-747” value was over 8 micrograms/mL and the “MIC, A. baumannii NCTC 13424” value was over 8 micrograms/mL. In addition, in the assay on K. pneumoniae (setting [5]), the “MIC, K. pneumoniae ATCC 4352” value is reported as 4 micrograms/mL and the “MIC, K. pneumoniae ATCC BAA-2146” value is given as 8 micrograms/mL. Further, in the assay on P. aeruginosa (setting [5]), the “MIC, P. aeruginosa ATCC 27853” value amounted to 2 micrograms/mL and the “MIC, P. aeruginosa CCUG 59347” value is given as 4 micrograms/mL.
For “(trans-6- octylpiperidine)-3- carbonyl polymyxin B nonapeptide [Example D18]”, in the assay with E. coli (setting [5]), the “MIC, E. coli ATCC 25922” value worked out at 4 micrograms/mL and the “MIC, E. coli NCTC 13441” value amounted to 4 micrograms/mL. In the assay on A. baumannii (setting [5]), the “MIC, A. baumannii ATCC BAA-747” value is on record as over 8 micrograms/mL and the “MIC, A. baumannii NCTC 13424” value was over 8 micrograms/mL. Further, in the assay on K. pneumoniae (setting [5]), the “MIC, K. pneumoniae ATCC 4352” value is on record as 8 micrograms/mL and the “MIC, K. pneumoniae ATCC BAA-2146” value is over 8 micrograms/mL. Besides, in the assay on P. aeruginosa (setting [5]), the “MIC, P. aeruginosa ATCC 27853” value stood at 4 micrograms/mL and the “MIC, P. aeruginosa CCUG 59347” value is 2 micrograms/mL.
In the case of “(trans-6- octylpiperidine)-3- carbonyl polymyxin B nonapeptide [Example D19]”, in the assay with E. coli (setting [5]), the “MIC, E. coli ATCC 25922” value was found to be 2 micrograms/mL and the “MIC, E. coli NCTC 13441” value worked out at 2 micrograms/mL. Further, the “MIC, A. baumannii ATCC BAA-747” value with A. baumannii (setting [5]) amounted to 2 micrograms/mL. In the assay with K. pneumoniae (setting [5]), the “MIC, K. pneumoniae ATCC 4352” value was determined as 2 micrograms/mL and the “MIC, K. pneumoniae ATCC BAA-2146” value turned out to be 4 micrograms/mL. Also, in the assay with P. aeruginosa (setting [5]), the “MIC, P. aeruginosa ATCC 27853” value is given as 0.5 micrograms/mL and the “MIC, P. aeruginosa CCUG 59347” value stood at 1 micrograms/mL.
Regarding “Cis-5-(N- isobutylsulfamoyl) piperidine-3- carbonyl L-Thr-L- Dap-polymyxin B heptapeptide [Example D94]”, the “MIC E. coli 058” value in assay [1] is given as 16 micrograms/mL. In addition, the “MIC, E. coli ATCC 25922” value in the assay with E. coli (sole activity, Table 6C) came out at 0.03 micrograms/mL. In addition, in the assay with A. baumannii (sole activity, Table 6C), the “MIC, A. baumannii ATCC BAA-747” value came to 0.06 micrograms/mL and the “MIC, A. baumannii NCTC 13424” value was 0.06 micrograms/mL. In the assay with P. aeruginosa (sole activity, Table 6C), the “MIC, P. aeruginosa ATCC 27853” value is recorded as 0.5 micrograms/mL and the “MIC, P. aeruginosa CCUG 59347” value stood at 1 micrograms/mL. Besides, in assay [4], the “MIC P. aeruginosa 065” value was determined as 32 micrograms/mL.
Take “trans-4- Phenylpyrrolidine-3- carbonyl polymyxin B nonapeptide [Example D1]”: in the assay on E. coli (setting [5]), the “MIC, E. coli ATCC 25922” value came to 4 micrograms/mL and the “MIC, E. coli NCTC 13441” value was 4 micrograms/mL. For the same substance, in the assay with A. baumannii (setting [5]), the “MIC, A. baumannii ATCC BAA-747” value is 4 micrograms/mL and the “MIC, A. baumannii NCTC 13424” value is 4 micrograms/mL. Further, in the assay with K. pneumoniae (setting [5]), the “MIC, K. pneumoniae ATCC 4352” value stood at 2 micrograms/mL and the “MIC, K. pneumoniae ATCC BAA-2146” value is reported as 1 micrograms/mL. In the assay on P. aeruginosa (setting [5]), the “MIC, P. aeruginosa ATCC 27853” value is recorded as 0.5 micrograms/mL and the “MIC, P. aeruginosa CCUG 59347” value is on record as 2 micrograms/mL.

Source of the values: patent US20210221848A1, “POLYMYXIN DERIVATIVES AND THEIR USE IN COMBINATION THERAPY TOGETHER WITH DIFFERENT ANTIBIOTICS” (priority 2014, published 2021).
